Some test systems named below: MDA-MB-231 breast; T-47D breast; DU-145 prostate.
Assay in all cases: NCI tumour cell line growth inhibition, 48 h

Molecules are shown by their SMILES. Several values for one entry are separate records, joined by “and”; a condition that tells them apart may be missing. Identical values can stand only once.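 Values below derive from 48-hour exposures of cells grown in 96-well plates, with endpoints linearly interpolated between the two concentrations bracketing the appropriate inhibition level. GI50 marks 50% less growth. The concentration for full growth arrest is given as TGI.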

In the case of `Nc1ccc(S(=O)(=O)NCc2nccs2)cc1`, the TGI was found to be 68.2 µM with MDA-MB-231 breast, 71.8 µM in the assay with T-47D breast and 95.5 µM in the assay with DU-145 prostate.
For the compound `COc1ccc(Cn2c(Cl)c(/C=C3/C(=O)Nc4ccccc43)c3cc(OC)c(C)cc32)cc1`, the GI50 in the assay on MDA-MB-231 breast was 4220 nM; in the assay on T-47D breast, 25000 nM; with DU-145 prostate, 18100 nM. Also, the TGI in the assay with MDA-MB-231 breast, with T-47D breast and with DU-145 prostate was > 100 µM throughout.
With `FCc1ncc(-c2ccc(C(F)(F)F)cc2)c(NC2CCCCCC2)n1`, the GI50 in the assay on MDA-MB-231 breast, with T-47D breast and in the assay with DU-145 prostate was > 10000 nM throughout. The TGI in the assay with MDA-MB-231 breast, with T-47D breast and with DU-145 prostate was > 10 µM throughout.
Turning to `O=C1NC2(CN3CCC2CC3)C(=O)N1CN(Cc1ccccc1)c1ccccc1` (stereo not given), the TGI in the assay with MDA-MB-231 breast, in the assay with T-47D breast and with DU-145 prostate was > 100 µM each time.
For `CCN(CC)CCNc1n[n+]([O-])c2ccccc2[n+]1[O-]`, in the assay with MDA-MB-231 breast, the GI50 is 6080 nM and 2830 nM. Moreover, the TGI is 27.3 µM and 20.7 µM in the assay on MDA-MB-231 breast; 36.4 µM and 27.5 µM in the assay with T-47D breast; 48.4 µM and 47.9 µM in the assay with DU-145 prostate.
On to `CCN(CC)CCCC(C)Nc1c2ccc(C)cc2nc2ccc(OC)cc12` (stereo not given), for which the GI50 with MDA-MB-231 breast was 1610 nM; in the assay on T-47D breast it was 11800 nM; in the assay with DU-145 prostate, 1650 nM. The TGI is 5.41 µM in the assay on MDA-MB-231 breast, 33.9 µM in the assay on T-47D breast and 8.83 µM in the assay on DU-145 prostate.
Consider `COC(=O)CCC1=C(C)/C(=C/c2[nH]c(-c3ccc[nH]3)cc2OC)N=C1C`, for which the GI50 in the assay with MDA-MB-231 breast was 223 nM; in the assay on T-47D breast, 378 nM; in the assay with DU-145 prostate, 2170 nM. Besides, the TGI in the assay on MDA-MB-231 breast is 1.35 µM; with T-47D breast it was 1.86 µM; in the assay on DU-145 prostate it was 15.1 µM.
With `COc1ccc(Cl)cc1Nc1nc(C(F)(F)F)ccc1C(=O)N/N=C/c1cc(OC)c(OC)c(OC)c1`, the GI50 in the assay on MDA-MB-231 breast was 2210 nM; with T-47D breast, 1390 nM; in the assay with DU-145 prostate, 4270 nM. Also, the TGI was 8.66 µM in the assay on MDA-MB-231 breast, 8.03 µM with T-47D breast and > 100 µM in the assay with DU-145 prostate.
Regarding `CSc1ccc(/C=C2\C=C(CC(=O)NCc3ccc(C(=O)c4ccccc4)cc3)c3cc(F)ccc32)cc1`, the GI50 in the assay on MDA-MB-231 breast is 64.3 nM; in the assay on T-47D breast it was 1990 nM; in the assay with DU-145 prostate, 40.1 nM. Moreover, the figures for the TGI in the assay with MDA-MB-231 breast, in the assay with T-47D breast and in the assay with DU-145 prostate were 5.3 µM, 44 µM and 0.877 µM, respectively.
On to `Cc1nc(C(N)=S)sc1C(=O)C/C(=N/N)C(=O)Nc1cccc(Cl)c1C`, for which the TGI in the assay on MDA-MB-231 breast and in the assay with T-47D breast was > 100 µM each time.
With `CCC(c1cccc(O)c1)C(CC)c1cccc(O)c1` (stereo not given), the GI50 in the assay with MDA-MB-231 breast is 6210 nM; with T-47D breast it was 3540 nM; in the assay on DU-145 prostate it was 11000 nM. The TGI came to 19.6 µM with MDA-MB-231 breast, 17.1 µM with T-47D breast and 29.9 µM in the assay with DU-145 prostate.
For `COc1cc(Cn2c(-c3nonc3N)nc3ccccc32)ccc1C`, the results for the GI50 in the assay with MDA-MB-231 breast, in the assay on T-47D breast and with DU-145 prostate were 1020 nM, 574 nM and 605 nM, respectively. Besides, the TGI in the assay with MDA-MB-231 breast was 38.1 µM; in the assay on T-47D breast, > 100 µM; in the assay with DU-145 prostate, > 37.8 µM.
In the case of `Cn1cc(CNCC2CCN(c3ncc(C(=O)NO)cn3)CC2)c2ccccc21`, the GI50 was 40 nM with MDA-MB-231 breast, < 10 nM in the assay with T-47D breast and 12.4 nM in the assay with DU-145 prostate. Moreover, the results for the TGI in the assay on MDA-MB-231 breast, with T-47D breast and in the assay on DU-145 prostate were 5.58 µM, 0.543 µM and 4.41 µM, respectively.
Regarding `COC1CC(OC(=O)c2ccccc2)C(OC(=O)c2ccccc2)C(C)O1` (stereo not given), the TGI in the assay on MDA-MB-231 breast, with T-47D breast and with DU-145 prostate was > 100 µM in each case.
With `Cc1cc(-c2nnc3n2CCCCC3)c(C)n1-c1ccc(Cl)c(Cl)c1`, the GI50 in the assay with MDA-MB-231 breast was 15200 nM; with T-47D breast, 6030 nM; in the assay on DU-145 prostate, 27600 nM. For the same compound, the TGI in the assay on MDA-MB-231 breast is 33.5 µM; in the assay with T-47D breast, 30.8 µM; in the assay with DU-145 prostate, > 100 µM.
As to `OCC1OC(n2cnc3c(/C=C(/O)c4ccccc4)ncnc32)C(O)C1O` (stereo not given), the TGI with MDA-MB-231 breast was > 30 µM; in the assay on T-47D breast, > 100 µM; in the assay with DU-145 prostate, > 100 µM.
On to `Cn1c(=O)c2c(ncn2CN2CCN(Cn3cnc4c3c(=O)n(C)c(=O)n4C)CC2)n(C)c1=O`, for which the TGI in the assay on MDA-MB-231 breast is > 100 µM; with T-47D breast it was 89.1 µM; in the assay with DU-145 prostate it was > 100 µM.
`CCOC(=O)C(/C=N\C(=S)Nc1ccc(OCC)cc1)=C(/O)c1ccccc1`: the TGI in the assay with MDA-MB-231 breast, in the assay on T-47D breast and in the assay on DU-145 prostate was > 100 µM throughout.
Turning to `COc1ccc(-c2cn[nH]c2-c2cc(OC)c3c(c2)OCCO3)cc1`, in the assay on MDA-MB-231 breast, the GI50 is 179 nM and the TGI came to 10.9 µM. Also, in the assay with DU-145 prostate, the GI50 is 312 nM and the TGI was 16.9 µM.
For `c1cc(CNC2C3CCC(C3)C2c2c[nH]c3ccccc23)cc(CNC2C3CCC(C3)C2c2c[nH]c3ccccc23)c1` (stereo not given), the TGI came to 2.81 µM in the assay with MDA-MB-231 breast and 2.3 µM in the assay on DU-145 prostate.

For the origin of these results see PubChem BioAssay (NCI).
